Three compounds from patent US20100323990A1, “SHIP 1 MODULATOR PRODRUGS” (THE UNIVERSITY OF BRITISH COLUMBIA, priority 2006, published 2010) can be followed below.

Assay [1] relates to J774.1a macrophage cells. Briefly: Macrophage TNF-α production (Assay 2). Also: key: a ‘+’ indicates a positive result for desired activity; a ‘−’ indicates a negative result for desired activity. The assay is classed as cell-based. The note with it: 10 μg/mL test compound, 100 ng/mL LPS, supernatants after 2 hr and 5 hr. The method, then: (§1) Assay 1) In vitro testing in a SHIP enzyme assay. Test compounds were dissolved in a suitable solvent (e.g. EtOH, DMSO and others) and diluted into aqueous buffer (20 mM Tris HCl, pH 7.5 and 10 mM MgCl2). SHIP enzyme assays were performed in 96-well microtitre plates with 10 ng of enzyme/well in a total volume of 25 μL of 20 mM Tris HCl, pH 7.5 and 10 mM MgCl2. SHIP enzyme was incubated with test extracts (provided in solvent) or vehicle for 15 min at 23° C. before the addition of 100 μM inositol-1,3,4,5-tetrakisphosphate (Echelon Biosciences Inc, Salt Lake City, Utah). After 20 min at 37° C. and the amount of inorganic phosphate released assessed by the addition of Malachite Green reagent and absorbance measurement at 650 nm. Assay 2) Macrophage TNF-α production. J774.1a macrophage cells were treated with 10 μg/mL of test compound dissolved in solvent (e.g. cyclodextran) for 40 minutes prior to the addition of 100 ng/mL LPS. Culture supernatants were collected after 2 hr and 5 hr for TNF-α determination by ELISA. Assay 3) Macrophage TNF-α NO assay. J774.1a macrophage cells were treated with 10 μg/ml of test compound dissolved in solvent for 40 minutes prior to the addition of LPS. Culture supernatants were collected after 24 hr. for determination of NO concentration using the Griess reagent. Assay 4) Stimulation of mast cells by FcεRI crosslinking. Mast cells were pre-loaded overnight in BMMC medium lacking IL-3 with 0.1 μg/ml anti-DNP IgE (SPE-7, Sigma, Oakville, Ont). For calcium flux measurements, cells were incubated with 2 μM fura 2-acetoxymethyl ester (Molecular Probes, Eugene, Oreg.) in Tyrode's buffer at 23° C. for 45 min. Cells were then washed and incubated in the presence of the test compound 30 min prior to stimulation with the indicated concentration of DNP-human serum albumin (DNP-HSA). Calcium influx was monitored by spectrofluorometry as described previously. For analysis of intracellular signaling, cells were pre-loaded with anti-DNP IgE as above, pre-treated with the test compound for 30 min at 37° C. and stimulated with 20 ng/ml DNP-HSA for 5 min. Total cell lysates were then prepared and analyzed for phospho-PKB, phospho-p38^MAPK, phospho-MAPK, Grb-2 (Cell Signalling, Mississauga, Ont) and SHIP^6 by immunoblot analysis. Assay 5) Mouse acute cutaneous anaphylaxis model. 6-8 week old CD1 mice (University of British Columbia Animal Facility, Vancouver, BC) were sensitized to the hapten DNP by cutaneous application of 25 μL of 0.5% dinitrofluorobenzene (DNFB) (Sigma, Oakville, Ont) in acetone to the shaved abdomen of mice for two consecutive days. 24 hrs later, test substances (dissolved in 10 μL of 1:2 DMSO:MeOH) were painted on the right ear while the left ear received vehicle control. 30 min after drug application, DNFB was applied to both ears to induce mast cell degranulation. A 6 mm punch was taken from the ear and immediately frozen on dry ice for subsequent determination of neutrophil myeloperoxidase (MPO) activity. Assay 6) Mouse endotoxemia model. 6-8 week old C57B16 mice (VCHRI Mammalian Model of Human Disease Core Facility, Vancouver, BC) were orally administered the test compound 30 min prior to an IP injection of 2 mg/kg of LPS (E. Coli serotype 0111:B4, Sigma, Oakville, Ont). Blood was drawn 2 hrs later for determination of plasma TNFα by ELISA. Assay 7) In vitro Mulitple Myeloma (MM) assay. The ability of SHIP activators to reduce tumor cell survival was assessed in MM cell lines treated with the test compound. The lines OPM1, OPM2, MM.1S and RPMI 8226 were plated at a density of 1×10^5 cells/mL in 200 μL of medium with various concentrations of the test compound, and viable cell numbers were determined on day 3 and day 5 by trypan blue exclusion. The lines RPMI 8226 and U266 were plated at a density of 1×10^6 cells/mL in 250 μL of medium with various concentrations of the test compound. At day 4, the medium of each culture was replaced by fresh medium containing the same concentration of test compound. […]

Another assay has as its system J774.1 macrophage cells. Briefly: TNFα production in LPS-stimulated J774.1 macrophages (Example 9). In kind it is cell-based. The note with it: 2 ng/mL LPS. The method, then: An assay to determine the relative inhibition of TNFα production by Compound 103 compared to Compound 100 was conducted as follows.
J774.1 macrophage cells were plated at 2×10^5 cells/well in 24 well plates. The next day the media was changed and Compound 100, Compound 103 or cyclodextrin carrier were added to the wells at the indicated concentrations for 30 min prior to stimulation of the cells with 2 ng/mL lipopolysaccharide (LPS). LPS activation of macrophages leads to production of TNF alpha which can be detected in the culture supernatant and quantified by ELISA. The results are depicted in a graph in FIG. 1.

Assay [2] deals with J774.1a macrophage cells. Briefly: Macrophage TNF-α NO assay (Assay 3), Griess reagent. Also: key: a ‘+’ indicates a positive result for desired activity; a ‘−’ indicates a negative result for desired activity. The note with it: 10 μg/ml test compound, LPS, supernatants after 24 hr. In kind it is cell-based. On the procedure: as §1
In general terms: Nitrite, measured by Griess reagent, commonly stands in for NO production.

Assay [3] relates to SHIP−/− bone marrow derived macrophages. Briefly: LPS-stimulated TNFα production in SHIP−/− bone marrow derived macrophages. The conditions noted are these: SHIP−/− cells, 15 μM, 10 ng/mL LPS 2 h. In kind it is cell-based, mice. The method, then: (§2) Bone marrow cells were aspirated from 4 to 8 week old C57B16×129Sv mixed background mice and SHIP^+/+ and SHIP^−/− mast cells prepared as described previously. Bone marrow derived macrophages from SHIP^+/+ and SHIP^−/− mice were obtained and maintained in IMDM supplemented with 10% FCS, 150 μM MTG, 2% C127 cell conditioned medium as a source of macrophage colony stimulating factor (M-CSF) (macrophage medium)
LPS stimulation of macrophages. For the analysis of LPS-stimulated TNFα production, 2×10^5 cells were plated the night before in 24 well plates in macrophage medium. The next day, the medium was changed and AQX-016A or carrier was added to cells at the indicated concentrations for 30 min prior to the addition of 10 ng/mL LPS. Supernatants were collected for TNFα determination by ELISA (BD Biosciences, Mississauga, ON, Canada). For analysis of intracellular signaling, 2×10^6 cells were plated the night before in 6 cm tissue culture plates. […] Calcium influx was monitored by spectrofluorometry. […] Total cell lysates were then prepared and analyzed for phospho-PKB, phospho-p38^MAPK, phospho-MAPK, Grb-2 (Cell Signalling, Mississauga, Ont) and SHIP^6 by immunoblot analysis.
The target specificity and biological efficacy of AQX-016A were assessed by comparing AQX-016A's effects on PI3K-regulated processes in primary SHIP^+/+ vs SHIP^−/− macrophages and mast cells. […]

Assay [4] deals with SHIP+/+ bone marrow derived macrophages. Kind of assay: LPS-stimulated TNFα production in SHIP+/+ bone marrow derived macrophages. The assay is classed as cell-based, mice. The note with it: SHIP+/+ cells, 15 μM, 10 ng/mL LPS 2 h. On the procedure: as §2
LPS stimulation of macrophages. For the analysis of LPS-stimulated TNFα production, 2×10^5 cells were plated the night before in 24 well plates in macrophage medium. The next day, the medium was changed and AQX-016A or carrier was added to cells at the indicated concentrations for 30 min prior to the addition of 10 ng/mL LPS. Supernatants were collected for TNFα determination by ELISA (BD Biosciences, Mississauga, ON, Canada). For analysis of intracellular signaling, 2×10^6 cells were plated the night before in 6 cm tissue culture plates. The next day, the cells were cultured in macrophage medium without M-CSF for 1 hr at 37° C. and then pretreated with AQX-016A or carrier for 30 min prior to the addition of 10 ng/mL LPS for 15 min. Cells were washed with 4° C. PBS and resuspended in lysis buffer (50 mM Hepes, 2 mM EDTA, 1 mM NaVO4, 100 mM NaF, 50 mM NaPPi and 1% NP40) supplemented with Complete Protease Inhibitor Cocktail (Roche, Montreal, Canada). Lysates were rocked at 4° C. for 30 min and clarified by centrifuging 20 min at 12000×g. Lysates were then made 1× in Laemmli's buffer, boiled 2 min and loaded onto 7.5% SDS polyacrylamide […]. Immunoblot analysis for phospho PKB (Cell Signalling, Mississauga, Ont), SHIP and actin (Santa Cruz, Santa Cruz, Calif.) were carried out as described previously. Stimulation of mast cells by FcεRI crosslinking. Mast cells were pre-loaded overnight in BMMC medium lacking IL-3 with 0.1 μg/ml anti-DNP IgE (SPE-7, Sigma, Oakville, Ont). For calcium flux measurements, cells were incubated with 2 μM fura 2-acetoxymethyl ester (Molecular Probes, Eugene, Oreg.) in Tyrode's buffer at 23° C. for 45 min. Cells were then washed and incubated in the presence of vehicle control, LY294002 or AQX-016A 30 min prior to stimulation with the indicated concentration of DNP-human serum albumin (DNP-HSA). Calcium influx was monitored by spectrofluorometry. For analysis of intracellular signaling, cells were pre-loaded with anti-DNP IgE as above, pre-treated with AQX-016A or buffer control for 30 min at 37° C. and stimulated with 20 ng/ml DNP-HSA for 5 min. Total cell lysates were then prepared and analyzed for phospho-PKB, phospho-p38^MAPK, phospho-MAPK, Grb-2 (Cell Signalling, Mississauga, Ont) and SHIP^6 by immunoblot analysis.
The target specificity and biological efficacy of AQX-016A were assessed by comparing AQX-016A's effects on PI3K-regulated processes in primary SHIP^+/+ vs SHIP^−/− macrophages and mast cells. […] LPS stimulation of macrophages is associated with a PIP3-dependent release of pro-inflammatory mediators such as TNFα. The action of AQX-016A on SHIP^+/+ vs SHIP^−/− bone marrow derived macrophages was examined. Cells were pretreated for 30 min with AQX-016A prior to stimulation with 10 ng/mL of LPS for 2 h. AQX-016A was able to suppress TNFα production in SHIP^+/+ cells by 30% at 3 μM and 50% at 15 μM (FIG. 8A). […] Activation of mast cells via IgE+ antigen crosslinking of their IgE receptors results in elevation of intracellular calcium levels.

In the next assay the test system is SHIP enzyme. Briefly: In vitro SHIP enzyme assay (Assay 1), phosphate release by Malachite Green. The assay is classed as biochemical. The note with it: PI-3,4-P2 20 μM, Compound 100 3 μM, 30 μM IP4. On the procedure: as §1
For the next assay, the target named is T1, ΔC2 SHIP (Homo sapiens, UniProt Q92835, DEL725-863).
T1 construct: His6; made in house; host or cells: mammalian expression vector pME18S
T1 sequence (Q92835 with tags, fused parts or gaps DEL725-863): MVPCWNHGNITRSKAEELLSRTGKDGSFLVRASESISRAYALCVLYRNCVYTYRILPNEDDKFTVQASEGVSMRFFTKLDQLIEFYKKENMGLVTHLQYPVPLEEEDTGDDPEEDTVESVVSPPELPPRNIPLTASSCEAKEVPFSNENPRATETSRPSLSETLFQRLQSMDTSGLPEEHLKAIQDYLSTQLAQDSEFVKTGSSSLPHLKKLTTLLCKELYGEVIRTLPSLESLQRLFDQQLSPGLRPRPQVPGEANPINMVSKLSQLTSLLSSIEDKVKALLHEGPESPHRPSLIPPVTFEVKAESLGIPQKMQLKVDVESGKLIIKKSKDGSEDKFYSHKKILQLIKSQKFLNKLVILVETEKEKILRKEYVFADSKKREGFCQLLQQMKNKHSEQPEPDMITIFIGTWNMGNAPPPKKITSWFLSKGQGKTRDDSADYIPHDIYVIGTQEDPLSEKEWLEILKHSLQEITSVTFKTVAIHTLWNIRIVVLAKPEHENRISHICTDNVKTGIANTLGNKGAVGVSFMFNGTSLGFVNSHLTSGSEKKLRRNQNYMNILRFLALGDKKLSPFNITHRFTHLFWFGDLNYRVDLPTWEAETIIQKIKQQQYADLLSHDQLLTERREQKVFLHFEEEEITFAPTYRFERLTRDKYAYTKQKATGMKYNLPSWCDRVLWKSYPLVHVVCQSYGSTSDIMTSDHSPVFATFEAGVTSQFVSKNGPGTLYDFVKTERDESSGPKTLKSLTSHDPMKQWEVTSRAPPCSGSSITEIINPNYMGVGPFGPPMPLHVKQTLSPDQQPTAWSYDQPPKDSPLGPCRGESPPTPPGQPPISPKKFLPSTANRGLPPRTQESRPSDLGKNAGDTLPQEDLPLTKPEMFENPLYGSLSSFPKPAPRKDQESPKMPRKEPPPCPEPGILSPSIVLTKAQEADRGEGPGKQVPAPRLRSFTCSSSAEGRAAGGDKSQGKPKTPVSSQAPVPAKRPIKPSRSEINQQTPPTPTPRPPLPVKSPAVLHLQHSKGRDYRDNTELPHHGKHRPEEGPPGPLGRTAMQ
Briefly: SHIP enzyme assay with C2 domain deleted SHIP. In kind it is biochemical. The note with it: PI-3,4-P2 20 μM, Compound 100 3 μM, 30 μM IP4. The text has this:
A His6 tagged SHIP ΔC2 domain deletion mutant (deleting residues 725 to 863) in the mammalian expression vector pME18S was generated by a standard PCR-based methodology. An N-terminal His6 C2 domain construct was also generated by PCR inserted into the pET28C bacterial expression vector using EcoRI and NdeI restriction sites.
The allosteric regulation of enzymes has remained under-appreciated primarily because allosteric effectors are not easy to find. The molecular mechanism by which Compound 100 activated SHIP was investigated, first by performing classical enzyme kinetic analysis of its phosphatase activity. Activity measurements were performed with substrate concentrations from 10-100 μM.
The SHIP protein contains a C2 domain located at the carboxyterminal end of its phosphatase domain. […] SHIP lacking its the C2 domain (ΔC2 SHIP) was prepared.

With `Cc1cc(OC(=O)CN)cc2c1[C@]1(C)CCC3C(C)(C)CCC[C@]3(C)[C@H]1C2` (stereo partly shown) [Compound 103], in the assay with J774.1a macrophage cells [1], the “Assay 2: Macrophage TNF-α production, desired activity” value is reported as “+”. Besides, the “relative inhibition of TNFα production” value with J774.1 macrophage cells is given as “Inhibits TNF Alpha Production Better than Compound 100”. In addition, the “Assay 3: Macrophage NO assay, desired activity” value with J774.1a macrophage cells [2] was “+”.

With `O=c1cc(N2CCOCC2)oc2c(-c3ccccc3)cccc12` [LY294002, reference compound], the “suppression of TNFα production” value in assay [3] and in assay [4] was roughly 40% each time.

With `CCCCCCCCCCCCCCCC(=O)OC[C@H](COP(=O)(O)O[C@H]1[C@H](O)[C@@H](O)[C@H](OP(=O)(O)O)[C@@H](OP(=O)(O)O)[C@H]1O)OC(=O)CCCCCCCCCCCCCCC` [PI-3,4-P2, reference compound], the “activation of wild-type SHIP enzyme” value in the assay with SHIP enzyme is “activated wild-type SHIP enzyme to a similar extent as Compound 100”. The “enhancement of ΔC2 SHIP activity” value at ΔC2 SHIP is recorded as “could not be enhanced”.
